We go through one compound from patent publication US20180074045A1, “SYSTEM AND METHOD FOR HIGH THROUGHPUT SCREENING OF CANCER CELLS” (CANNABICS PHARMACEUTICALS INC, priority 2015, published 2018).

This test concerns U87MG glioblastoma cells. In words: Cell viability imaging, extracts with various THC to CBD ratios. In kind it is cell-based, human. The conditions noted are these: extracts with various THC to CBD ratio, adjusted to 5 μM THC, 24 hours, 96-well; FIG. 6. The procedure:
Cells were harvested three days before exposure and seeded (about 50,000-200,000 cells/well) into a 24-well microplate. The medium was replaced in respective culture medium containing 0.5% FBS, and vehicle (DMSO) or cannabis extracts (1-10 μg/ml) were added to the medium for 24-48 hours in duplicates.
The effect of cannabinoid compounds on cell viability was measured using high-content screening analysis. For example, differentiation of subpopulations of cells within the same well was analysed by distinguishing: live versus necrotic cells, early apoptotic cells and late apoptotic cells.
Cells were imaged in ImageXpress micro (see FIG. 2), and analyzed using MetaXpress and the Cell Cycle module.
Reference is now made to FIG. 6 showing images of glioblastoma cell lines treated with selected cannabis extracts comprising various THC to CBD ratio. In this study, 10,000 U87MG glioblastoma cells were plated into a 96-well microplate and treated with vehicle (DMSO) or cannabis extracts. It is noted that the extracts were delectated to reach 5 μM THC. Cells were imaged after 24 hours using the ImageXpress micro.

The structures appear in SMILES notation.

Regarding `C=C(C)[C@@H]1CCC(C)=C[C@H]1c1c(O)cc(CCCCC)cc1O` [CBD, cannabidiol], the “U87MG glioblastoma cells viability” value is “plays a role in reducing U87MG glioblastoma cells viability”.
